Earlier results as cited in patent publication US20230158080A1 ([…], LLC, priority 2021, published 2023).

Tests used:
[1] = tested on: CD34+/F1k1+ and CD34+/VE-cadherin+ cells; conditions: castrated rats after testosterone supplementation
[2] = target: androgen receptor (Homo sapiens, UniProt P10275); conditions: stimulation of EPCs
[3] = tested on: EPC; conditions: different doses of R1881

Chain of androgen receptor (P10275 whole entry): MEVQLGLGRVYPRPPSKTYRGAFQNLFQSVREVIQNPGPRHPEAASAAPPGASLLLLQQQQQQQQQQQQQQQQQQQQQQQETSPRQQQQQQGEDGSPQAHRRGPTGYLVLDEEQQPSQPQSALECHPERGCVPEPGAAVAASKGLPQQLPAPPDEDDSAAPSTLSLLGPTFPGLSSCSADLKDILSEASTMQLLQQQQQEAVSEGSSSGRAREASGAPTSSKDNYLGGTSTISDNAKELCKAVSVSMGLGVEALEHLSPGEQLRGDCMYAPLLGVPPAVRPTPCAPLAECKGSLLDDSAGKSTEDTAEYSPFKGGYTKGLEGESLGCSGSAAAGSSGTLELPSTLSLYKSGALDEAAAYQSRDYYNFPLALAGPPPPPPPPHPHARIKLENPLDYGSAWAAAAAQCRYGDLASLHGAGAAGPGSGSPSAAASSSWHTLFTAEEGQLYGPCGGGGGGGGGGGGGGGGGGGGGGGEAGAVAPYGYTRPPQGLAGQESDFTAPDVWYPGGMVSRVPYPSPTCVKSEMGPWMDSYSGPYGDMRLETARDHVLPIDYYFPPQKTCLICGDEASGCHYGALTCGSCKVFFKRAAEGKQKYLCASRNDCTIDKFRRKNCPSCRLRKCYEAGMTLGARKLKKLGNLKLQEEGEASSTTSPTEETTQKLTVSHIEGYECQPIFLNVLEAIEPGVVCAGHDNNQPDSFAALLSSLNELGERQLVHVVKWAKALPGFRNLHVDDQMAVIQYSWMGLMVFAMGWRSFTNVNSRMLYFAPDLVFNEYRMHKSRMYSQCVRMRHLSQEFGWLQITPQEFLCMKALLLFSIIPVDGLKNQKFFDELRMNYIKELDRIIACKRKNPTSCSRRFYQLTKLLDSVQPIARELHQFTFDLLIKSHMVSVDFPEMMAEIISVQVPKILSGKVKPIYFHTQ

Compound | percentage of EPC marker-positive cells in corpus cavernosum [1] | androgen receptor translocation in the nucleus [2] | EPC proliferation, migration and colony formation [3]
C[C@]12CC[C@H]3[C@@H](CCC4=CC(=O)CC[C@@]43C)[C@@H]1CC[C@@H]2O [testosterone] | restored |  | 
C[C@]1(O)CC[C@H]2[C@@H]3CCC4=CC(=O)CCC4=C3C=C[C@@]21C [R1881, methyltrienolone] |  | caused androgen receptor translocation in the nucleus | dose-dependent increase
